Test results taken from ChEMBL document CHEMBL1156004, “Pyrazolopyrimidines and pyrazolotriazines with potent activity against herpesviruses” (Bioorg Med Chem Lett, 2009).

Key:
[1] = Cytotoxicity against african green monkey Vero cells; format: cell-based; conditions: chlorocebus sabaeus
[2] = Antiviral activity against HSV1 SC16 infected in african green monkey Vero cells by hybrid capture method; format: functional, cell-based, Herpes simplex virus (type 1 / strain SC16); conditions: Human alphaherpesvirus 1, Vero
[3] = Cmax in Sprague-Dawley rat at 1 mg/kg, iv and po after 30 mins; format: ADME, organism-based; parameters: dose 1 mg/kg, route oral; conditions: in vivo
[4] = Oral bioavailability in Sprague-Dawley rat at 1 mg/kg; format: ADME, organism-based; conditions: in vivo
[5] = Half life in Sprague-Dawley rat at 1 mg/kg, iv and po; format: ADME, organism-based; parameters: dose 1 mg/kg, route oral; conditions: in vivo
Rattus norvegicus = assay: Volume of distribution in Sprague-Dawley rat at 1 mg/kg, iv and po; format: ADME, organism-based; parameters: dose 1 mg/kg, route oral; conditions: in vivo

Compound	CC50 [1]	IC50 [2]	Cmax [3]	bioavailability [4]	half-life [5]	Vd (Rattus norvegicus)
c1ccc(-c2nn3c(NC4CCCC4)cccc3c2-c2ccnc(NC3CCCC3)n2)cc1	> 40000 nM	620 nM				
c1ccc(-c2nn3c(NC4CCCC4)nc(NC4CCCC4)nc3c2-c2ccnc(NC3CCCC3)c2)cc1	> 40000 nM	120 nM				
COCCNc1nccc2c(-c3ccnc(NC4CCCC4)n3)c(-c3cccc(Cl)c3)nn12	> 40000 nM	300 nM				
c1cc(NC2CCCC2)n2nc(-c3ccc(OCC4CC4)cc3)c(-c3ccnc(NC4CCCC4)n3)c2c1	> 40000 nM	170 nM				
Fc1ccc(-c2nn3c(N4CCCC4)nccc3c2-c2ccnc(NC3CCCC3)n2)cc1	> 40000 nM	1900 nM				
Nc1nc2c(ncn2COCCO)c(=O)[nH]1 [ACYCLOVIR]	> 200000 nM	390 nM				
CC(C)(C)Nc1nccc2c(-c3ccnc(NC4CCCC4)n3)c(-c3ccc(F)cc3)nn12	> 40000 nM	6610 nM				
Oc1ccc(-c2nn3c(NC4CCCC4)nccc3c2-c2ccnc(NC3CCCC3)n2)cc1	27000 nM	4000 nM				
COc1ccc(-c2nn3c(NC4CCCC4)ccnc3c2-c2ccnc(NC3CCCC3)c2)cc1	10000 nM	600 nM				
COc1ccc(-c2nn3c(NC4CCCC4)ccnc3c2-c2ccnc(NC3CCCC3)n2)cc1	32000 nM	2400 nM				
c1ccc(-c2nn3c(NC4CCCC4)ncnc3c2-c2ccnc(NC3CCCC3)n2)cc1	> 40000 nM	6400 nM				
Fc1ccc(-c2nn3c(N4CCCCC4)nccc3c2-c2ccnc(NC3CCCC3)n2)cc1	> 40000 nM	980 nM				
COc1ccc(-c2nn3c(NC4CCCC4)nccc3c2-c2ccnc(NC3CCCC3)n2)cc1	> 40000 nM	280 nM				
Fc1ccc(-c2nn3c(NC4CCCC4)cccc3c2-c2ccnc(NC3CCCC3)n2)cc1	> 160000 nM	260 nM				
CC(C)COc1ccc(-c2nn3c(NC4CCCC4)nccc3c2-c2ccnc(NC3CCCC3)n2)cc1	> 40000 nM	610 nM				
Fc1ccc(-c2nn3c(NC4CCCC4)cc(NC4CCCC4)cc3c2-c2ccnc(NC3CCCC3)n2)cc1	> 40000 nM	240 nM				
COCCOc1ccc(-c2nn3c(NC4CCCC4)nccc3c2-c2ccnc(NC3CCCC3)n2)cc1	> 40000 nM	1120 nM				
Fc1ccc(-c2nn3c(NC4CCCC4)nccc3c2-c2ccnc(NC3CCCC3)n2)cc1	> 40000 nM	170 nM	300 nM	24%	2.5 h	1.2 L/kg
CCCOc1ccc(-c2nn3c(NC4CCCC4)nccc3c2-c2ccnc(NC3CCCC3)n2)cc1	> 20000 nM	540 nM				
c1cc(-c2c(-c3ccc(OCC4CC4)cc3)nn3c(NC4CCCC4)nccc23)nc(NC2CCCC2)n1	> 40000 nM	690 nM				
c1ccc(-c2nn3c(NC4CCCC4)ccnc3c2-c2ccnc(NC3CCCC3)c2)cc1	14000 nM	300 nM				
CCCCOc1ccc(-c2nn3c(NC4CCCC4)nccc3c2-c2ccnc(NC3CCCC3)n2)cc1	> 40000 nM	470 nM				
Clc1cccc(-c2nn3c(N4CCOCC4)nccc3c2-c2ccnc(NC3CCCC3)n2)c1	> 40000 nM	200 nM				
COc1ccc(-c2nn3c(NC4CCCC4)cccc3c2-c2ccnc(NC3CCCC3)n2)cc1	> 100000 nM	220 nM				
Clc1cccc(-c2nn3c(NC4CCCC4)nccc3c2-c2ccnc(NC3CCCC3)n2)c1	> 40000 nM	460 nM				
Fc1ccc(-c2nn3c(NC4CCCC4)ccnc3c2-c2ccnc(NC3CCCC3)c2)cc1	16000 nM	1200 nM				
